“Also recorded” adds a separate entry of the source.

Consider two molecules from US11207301B2, “Sphingosine 1 phosphate receptor agonists for neuroprotection” (RECEPTOS LLC, priority 2017, dated 2021).

Experiment [1] concerns primary rodent astrocytes. The experiment is described as follows: Primary rodent astrocytes in vitro, resting and LPS-activated. The class given is cell-based. How it is done: In addition, the effects of ozanimod on the CNS were examined in vivo using the cuprizone-induced mouse model of demyelination and in vitro in primary rodent astrocytes. Efficacy of ozanimod or compound (2-R) was examined in the cuprizone-induced mouse model of neuroprotection. C57BL/6 mice were treated with cuprizone (0.3% weight/weight orally) and rapamycin (10 mg/kg intraperitoneally daily) to demyelinate axons in the brain and concurrently treated with ozanimod (0.1, 0.3, or 1 mg/kg) or compound (2-S) (1 mg/kg) by daily oral gavage to investigate its neuroprotective activity. Neuroprotection was assessed through examination of axonal pathology in the corpus callosum using SMI-32 (antineurofilament H non-phosphorylated mouse monoclonal antibody) staining, functional assessment through kinematic gait analysis and the plasma biomarker neurofilament light chain (NfL). Further, direct activity of ozanimod was examined in resting and activated primary rodent astrocytes in vitro.

The target in the next experiment is T1, Recombinant human MAO-A (Homo sapiens, UniProt P21397).
T1 construct: purchased Sigma-Aldrich M7316; host or cells: baculovirus infected insect cells
T1 sequence (P21397 1-527): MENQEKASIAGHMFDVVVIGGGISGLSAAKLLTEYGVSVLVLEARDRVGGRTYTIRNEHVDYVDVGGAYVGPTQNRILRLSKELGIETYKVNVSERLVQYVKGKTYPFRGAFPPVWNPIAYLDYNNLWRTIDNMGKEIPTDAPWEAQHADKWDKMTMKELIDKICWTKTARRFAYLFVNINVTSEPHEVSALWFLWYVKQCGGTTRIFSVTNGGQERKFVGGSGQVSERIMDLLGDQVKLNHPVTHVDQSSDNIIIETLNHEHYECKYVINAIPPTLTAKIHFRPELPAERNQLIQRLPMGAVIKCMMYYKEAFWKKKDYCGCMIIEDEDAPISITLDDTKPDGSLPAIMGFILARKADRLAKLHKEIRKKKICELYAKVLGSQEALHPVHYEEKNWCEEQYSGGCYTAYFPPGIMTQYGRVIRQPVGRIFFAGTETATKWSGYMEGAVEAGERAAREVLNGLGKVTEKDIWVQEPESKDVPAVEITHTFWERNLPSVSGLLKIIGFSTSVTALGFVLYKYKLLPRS
Description: MAO-A inhibition, conversion of kynuramine to 4-hydroxyquinoline. The class given is biochemical. The following applies: tested up to 100 μM. How it is done: The effect of a S1P receptoragonist on MAO-B activity can be assessed by measuring the inhibition of conversion of substrate kynuramine to 4-hydroxyquinoline as described in Example 4.
Compound 1 and Compound 2-S were evaluated for their ability to inhibit MAO-A and MAO-B. Inhibition of the conversion of kynuramine, a substrate for MAO-A and MAO-B, to 4-hydroxyquinoline was used to assess the inhibitory potential of Compound 1 and Compound 2-S. Recombinant human MAO-A (product number M7316) and MAO-B (product number M7441) expressed in baculovirus infected insect cells were obtained from Sigma-Aldrich, Saint Louis, Mo. USA were used as a source of purified MAOs.
Recombinant MAO-A (0.01 mg/mL, final concentrations) and MAO-B (0.02 mg/mL, final concentration) were diluted to desired concentrations in 100 mM potassium phosphate buffer (pH 7.4) containing 5 mM MgCl2. The diluted protein fractions were preincubated with various concentrations of each test compound at 37° C. for 2 min. The concentrations used were 100, 33, 10, 3.3, 1.0, 0.33 μM and acetonitrile/DMSO as vehicle control for MAO-A and 1.0, 0.3, 0.1, 0.03, 0.01, 0.003 μM and acetonitrile/DMSO as vehicle control for MAO-B. The reaction was started by addition of kynuramine to the incubation mixture. The final concentration of kynuramine was 40 μM for MAO-A and 25 μM for MAO-B. The total incubation volume was 0.250 mL. […] The reaction product, 4-hydroxyquinoline was analyzed by LC-MS/MS as described below. […]
The gradient system was used to separate the analytes with a flow rate of 0.5 ml/min using mobile phase A, water containing 0.1% formic acid and mobile phase B, acetonitrile containing 0.1% formic acid. […] The analytes were monitored using multiple reaction monitoring and the ion transitions (Q1/Q3) were as follows: 4-hydroxyquinoline 146/104 (collision energy, CE was 27; declustering potential, DP, 50, and IS (acetaminophen), 152/110 (collision energy, CE was 27; declustering potential, DP, 50). All data were analyzed using AB Sciex Analyst v1.6.2 software.

Take `CC(C)Oc1ccc(-c2nc(-c3cccc4c3CC[C@@H]4NCCO)no2)cc1C#N` [Ozanimod]: the “release of pro-inflammatory cytokines, including IL-1β, TNFα, IL-6, and KC/GRO” value in experiment [1] (induced by LPS activation) was “attenuated the release of pro-inflammatory cytokines”. In addition, the “ERK and AKT signaling pathways” value in experiment [1] (primary rodent astrocytes) was “directly activated ERK and AKT signaling pathways”.

For `CC(C)Oc1ccc(-c2nc(-c3cccc4c3CCC4=O)no2)cc1C#N` [Compound 1, 2-isopropoxy-5-(3-(1-oxo-2,3-dihydro-1H-inden-4-yl)-1,2,4-oxadiazol-5-yl)benzonitrile], on Recombinant human MAO-A, the “MAO-A inhibition (in words)” value is “not an inhibitor; also recorded: does not inhibit”.
